≈ marks a conversion by molar mass, not a printed value. Where “and” joins values, the source holds several entries; their conditions need not be identical. Equal entries are not always repeated. Where two headings read alike, the source gives them in different places.
Tests used:
M. bovis BCG [1] = test: microbe, parasite or virus in culture; assay type: cell-based, Mycobacterium bovis BCG
M. bovis BCG [2] = assay type: cell-based, Mycobacterium bovis BCG; conditions: PhA2 2x–4x MIC90BCG, TDZ 80 μM, 24 h
M. smegmatis mc2155 = test: MIC against M. smegmatis mc2155; assay type: cell-based, Mycobacterium smegmatis; conditions: Mycolicibacterium smegmatis
M. bovis BCG-pclgR-RFP = assay type: cell-based, Mycobacterium bovis BCG; conditions: 0.25x – 2x MIC90 (controls 10 μM), 24 h
Mtb H37Rv = test: MIC by broth microdilution against Mtb H37Rv; assay type: cell-based, Mycobacterium tuberculosis; conditions: Mycobacterium tuberculosis, H37RV, 120 h
M. bovis BCG [3] = assay type: cell-based, Mycobacterium bovis BCG; conditions: exponential phase M. bovis BCG, 5 days
[4] = system: Mab bolletii CCUG 50184-T; test: MIC against Mab bolletii CCUG 50184-T; assay type: cell-based, Mycobacterium abscessus subsp. bolletii; conditions: Mycobacteroides abscessus; for MIC50: CCUG50184, 72 h, 3 days
Mab abscessus ATCC 19977 = test: MIC against Mab abscessus ATCC 19977; assay type: cell-based, Mycobacterium abscessus subsp. abscessus; conditions: Mycobacteroides abscessus; for MIC50: ATCC19977, 72 h, 3 days
M. bovis BCG [5] = assay type: cell-based, Mycobacterium bovis BCG; conditions: 0.5x to 4x MIC90BCG
[6] = system: Mab massiliense CCUG 48898-T; test: MIC against Mab massiliense CCUG 48898-T; assay type: cell-based, Mycobacterium abscessus subsp. massiliense; conditions: Mycobacteroides abscessus; for MIC50: CCUG48898, 72 h, 3 days
M. bovis BCG [7] = assay type: cell-based, Mycobacterium bovis BCG; conditions: 2x MIC90 (19 μg/mL)
M. bovis BCG [8] = assay type: cell-based, Mycobacterium bovis BCG; conditions: 24 h
[9] = system: nonreplicating M. bovis BCG; assay type: cell-based, Mycobacterium bovis BCG; conditions: 5 days, Wayne model
M. bovis BCG [10] = conditions: 2x MIC90 over 24 h
M. bovis BCG [11] = assay type: cell-based, Mycobacterium bovis BCG; conditions: 2xMIC90BCG
M. bovis BCG [12] = assay type: cell-based, Mycobacterium bovis BCG; conditions: luminescence normalized against CFU
HepG2 = test: Cytotoxicity in HepG2 cells; assay type: cell-based, human; conditions: Homo sapiens, HepG2; 48 h, growth suppressed by 50% vs untreated
Procedure, shortened: (§1)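 Cells seeded at 50,000/well, allowed to adhere overnight in DMEM at 37 °C/5% CO2, then exposed 48 h to compound at a final 0.5% v/v DMSO. Viability read by MTS-type reagent (3 h, absorbance 490 nm), corrected for compound and vehicle blanks, and normalized to untreated cells. IC50 from sigmoidal fit of viability versus log concentration, at least 3 determinations.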

Vero E6 = test: Cytotoxicity in Vero E6 cells; assay type: cell-based, African green monkey; conditions: growth suppressed by 50% vs untreated
Procedure, shortened: as §1

Mab abscessus = test: Time-kill kinetics, Mab abscessus; assay type: cell-based, Mycobacterium abscessus subsp. abscessus; conditions: 2xMIC90 (170 μM, 89 μg/mL)
clinical isolates of Mab = test: MIC50 against Mab clinical isolates; assay type: cell-based, Mycobacterium abscessus; conditions: Mycobacteroides abscessus
cat papillary muscle = conditions: cited from earlier work
[13] = 7H9 medium (first value of cell)
[14] = CA-MHB medium (second value of cell)

Structure (SMILES): CCCCCCCCC(C#N)(CCCN(C)CCc1ccc(OC)c(OC)c1)c1ccc(OC)c(OC)c1 (centres unmarked) [PhA2]
- MIC90 BCG (M. bovis BCG [1]; M. bovis BCG): 9 mg/L (≈ 17.2 µM)
- MIC50 (M. bovis BCG [1]; M. bovis BCG, broth dilution, growth reduced by 50% vs untreated): 10 µM (≈ 5.25 µg/mL)
- MIC50 (M. bovis BCG [1]; Mycobacterium tuberculosis variant bovis BCG, BCG, 120 h, read-out: MIC50 BCG With Glycerol, 7H9 broth with glycerol, 5 days): 10 µM (≈ 5.25 µg/mL)
- MIC50 (M. bovis BCG [1]; Mycobacterium tuberculosis variant bovis BCG, BCG, 120 h, read-out: MIC50 BCG Without Glycerol, 7H9 broth without glycerol, 5 days): 22 µM (≈ 11.5 µg/mL)
- MIC50 (M. bovis BCG [1]; Mycobacterium tuberculosis variant bovis BCG, BCG, M. bovis BCG, broth dilution, growth reduced by 50% vs untreated): 10 to 16 µM (≈ 5.25 to 8.4 µg/mL)
- MIC90 (M. bovis BCG [1]; Mycobacterium tuberculosis variant bovis BCG, BCG, M. bovis BCG, broth dilution, growth reduced by 90% vs untreated): 18 µM
- MIC50 (M. bovis BCG [1]; Mycobacterium tuberculosis variant bovis BCG, BCG, read-out: M. bovis BCG MIC50 (Table S4)): 10 µM (≈ 5.25 µg/mL)
- MIC90 (M. bovis BCG [1]; Mycobacterium tuberculosis variant bovis BCG, BCG, read-out: M. bovis BCG MIC90 (Table S4)): 18 µM
- MIC90 (M. bovis BCG [1]; Mycobacterium tuberculosis variant bovis BCG, BCG, read-out: MIC90 (Table S1), M. bovis BCG, broth dilution): 18 µM
- MIC90 (M. bovis BCG [1]; Mycobacterium tuberculosis variant bovis BCG, BCG, read-out: MIC90 BCG, M. bovis BCG): 9.4 mg/L
- NADH/NAD+ ratio (M. bovis BCG [2]): higher ratios
- MIC50 (M. smegmatis mc2155; MC2155, 24 h, incubation 1 day, read-out: M. smegmatis mc2155 MIC50 (Table S4)): 41 µM (≈ 21.5 µg/mL)
- MIC90 (M. smegmatis mc2155; MC2155, 24 h, incubation 1 day, read-out: M. smegmatis mc2155 MIC90 (Table S4)): 58 µM (≈ 30.4 µg/mL)
- MIC90 (M. smegmatis mc2155; MC2155, read-out: MIC90 M. smegmatis): 52.5 µM (≈ 27.5 µg/mL)
- induction of pclgR promoter activity (M. bovis BCG-pclgR-RFP): induced promoter activity in a dose dependent manner
- MIC50 (Mtb H37Rv; read-out: MIC50 Mtb H37Rv): 17 µM (≈ 8.92 µg/mL)
- MIC90 (Mtb H37Rv; second value of cell MIC50/MIC90, incubation 5 days, read-out: MIC90 Mtb H37Rv): 25 µM (≈ 13.1 µg/mL)
- MBC99.9 (10^3-fold kill) (M. bovis BCG [3]): 2 x MIC90
- MIC90 ([4]; CCUG50184, 7H9 broth (first value)): 95 µM (≈ 49.9 µg/mL)
- MIC50 [4, 13]: 62 µM (≈ 32.5 µg/mL)
- MIC50 [4, 14]: 16 µM (≈ 8.4 µg/mL)
- MIC90 ([4]; CCUG50184, camH broth (second value)): 27 µM (≈ 14.2 µg/mL)
- MIC90 (Mab abscessus ATCC 19977; ATCC19977, 7H9 broth (first value), read-out: MIC90 Mab abscessus ATCC 19977): 85 µM (≈ 44.6 µg/mL)
- MIC50 (Mab abscessus ATCC 19977; [13]): 54 µM (≈ 28.3 µg/mL)
- MIC50 (Mab abscessus ATCC 19977; [14]): 19 µM (≈ 9.97 µg/mL)
- MIC90 (Mab abscessus ATCC 19977; ATCC19977, Mab abscessus, read-out: MIC90 abscessus): 85 µM and 45 µg/mL
- MIC90 (Mab abscessus ATCC 19977; ATCC19977, camH broth (second value), read-out: MIC90 Mab abscessus ATCC 19977): 26 µM (≈ 13.6 µg/mL)
- formazan formation from MTS (M. bovis BCG [5]): dose dependent reduction in formazan
- MIC90 ([6]; CCUG48898, 7H9 broth (first value)): 91 µM (≈ 47.8 µg/mL)
- MIC50 [6, 13]: 61 µM (≈ 32 µg/mL)
- MIC50 [6, 14]: 11 µM (≈ 5.77 µg/mL)
- MIC90 ([6]; CCUG48898, camH broth (second value)): 28 µM (≈ 14.7 µg/mL)
- oxygen consumption rate (M. bovis BCG [7]): uptake was reduced to the basal level
- methylene blue decolorization (O2 uptake) (M. bovis BCG [8]; 0.5x and 1x MIC90BCG): Decolorization (active O2 uptake)
- methylene blue decolorization (O2 uptake) (M. bovis BCG [8]; 2x and 4x MIC90BCG): No decolorization
- kill of hypoxic M. bovis BCG ([9]; 2x MIC90BCG): resisted killing
- kill of hypoxic M. bovis BCG ([9]; 4x MIC90BCG): 10^3 fold
- membrane permeabilization (M. bovis BCG [10]): induced membrane permeabilization
- reduction of CFUs (M. bovis BCG [11]; 21-day time point): 10^5 fold
- regrowth in time-kill curve (M. bovis BCG [11]; 21 days): no rebound in growth
- ATP level (M. bovis BCG [12]; 2x MIC90, 12 h): 73%
- ATP level (M. bovis BCG [12]; 2x MIC90, 48 h): 27%
- IC50 (HepG2): 29 µM
- IC50 (Vero E6; 48 h): 28 µM
- IC50 (Vero E6; Chlorocebus sabaeus, Vero C1008, 48 h): 28 to 29 µM
- reduction of CFUs (Mab abscessus): 10^5 fold
- MIC50 (clinical isolates of Mab; read-out: MIC50 seven Mab clinical isolates): 22 to 39 µM
- MIC50 (clinical isolates of Mab; Mab clinical isolate M9, 7H9 broth, read-out: MIC50 M9): 26.5 µM
- MIC50 (clinical isolates of Mab; Mab clinical isolate M111, 7H9 broth, read-out: MIC50 M111): 24 µM
- MIC50 (clinical isolates of Mab; Mab clinical isolate M232, 7H9 broth, read-out: MIC50 M232): 22 µM
- MIC50 (clinical isolates of Mab; Mab clinical isolate M337, 7H9 broth, read-out: MIC50 M337): 25 µM
- MIC50 (clinical isolates of Mab; Mab clinical isolate M404, 7H9 broth, read-out: MIC50 M404): 26.5 µM
- MIC50 (clinical isolates of Mab; Mab clinical isolate M422, 7H9 broth, read-out: MIC50 M422): 23 µM
- MIC50 (clinical isolates of Mab; Mab clinical isolate M506, 7H9 broth, read-out: MIC50 M506): 23.5 µM
- MIC50 (clinical isolates of Mab; range over isolates, read-out: MIC50 seven Mab clinical isolates): 12 to 21 mg/L
- ED50 (concentration to reduce maximal contractility of the papillary muscle by 50%) (cat papillary muscle): 130 µM

From publication PMC12281142, “A potent phenylalkylamine disrupts mycobacterial membrane bioenergetics and augments bactericidal activity of bedaquiline” (iScience, 2025)
